Measurements published in US9914730B2, “Azaquinazoline inhibitors of Atypical protein Kinase C” (Ignyta, Inc., priority 2012, dated 2018).
Structures can show the parent of a compound that is named as a salt.

What follows are molecules tested against T1, full-length human PKCι (Homo sapiens, UniProt P41743) (assay: PKCι IC50 IMAP assay, full-length PKCι at 150 μM ATP). Details: read-out: IC50 in IMAP assay against full length PKCi at 150 μM ATP.
T1 construct: Recombinant, full-length human PKCι expressed in Sf21 insect cells is also commercially available; purchased; host or cells: Sf21 insect cells
T1 sequence (P41743 1-596): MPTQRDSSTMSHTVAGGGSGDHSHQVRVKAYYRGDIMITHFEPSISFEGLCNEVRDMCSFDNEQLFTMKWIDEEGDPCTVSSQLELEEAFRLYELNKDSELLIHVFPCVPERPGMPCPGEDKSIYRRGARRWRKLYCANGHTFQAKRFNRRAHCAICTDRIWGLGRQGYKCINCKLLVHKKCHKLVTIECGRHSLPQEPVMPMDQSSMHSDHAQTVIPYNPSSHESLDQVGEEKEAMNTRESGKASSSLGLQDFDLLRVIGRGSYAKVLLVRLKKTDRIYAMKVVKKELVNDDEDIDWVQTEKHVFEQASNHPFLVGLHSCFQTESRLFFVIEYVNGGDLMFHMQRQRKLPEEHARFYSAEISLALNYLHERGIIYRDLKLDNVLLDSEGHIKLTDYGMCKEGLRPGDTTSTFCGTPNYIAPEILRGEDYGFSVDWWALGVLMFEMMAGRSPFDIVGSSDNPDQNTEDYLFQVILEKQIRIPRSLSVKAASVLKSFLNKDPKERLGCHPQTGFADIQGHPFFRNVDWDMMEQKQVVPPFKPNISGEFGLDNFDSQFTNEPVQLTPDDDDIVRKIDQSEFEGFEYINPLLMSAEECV
Type: biochemical
Outline: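 IC50 from IMAP FP (ex 485/em 530 nm) after 60 min room-temperature reaction in pH 7.5 tris buffer with 9 mM MgCl2 and 0.9 mM DTT. Enzyme: full-length Sf21-expressed PKCι (~15 pM); ATP 150 μM, five times KM^APP; FAM-labelled peptide 100 nM; DMSO 4%.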

IC50	SMILES
< 100 nM	CCc1ccc(Nc2cc(-c3nc(N4CCNCC4)c4c(C5CC5)cncc4n3)ccn2)c(F)c1 [Example 717, [4-(5-Cyclopropyl-4-piperazin-1-yl-pyrido[3,4-d]pyrimidin-2-yl)-pyridin-2-yl]-(4-ethyl-2-fluoro-phenyl)-amine]
< 100 nM	CC1(C)CN(c2nc(-c3ccnc(Nc4c(F)cccc4F)c3)nc3cncc(C4CC4)c23)CCN1 [Example 718, {4-[5-Cyclopropyl-4-(3,3-dimethyl-piperazin-1-yl)-pyrido[3,4-d]pyrimidin-2-yl]-pyridin-2-yl}-(2,6-difluoro-phenyl)-amine]
< 100 nM	CC1(C)CN(c2nc(-c3ccnc(Nc4ccc(F)cc4)c3)nc3cncc(C4CC4)c23)CCN1 [Example 719]
< 100 nM	CN1CCN(c2cccc(Nc3cc(-c4nc(N5CCC[C@@H](O)C5)c5c(C6CC6)cncc5n4)ccn3)c2)CC1 [Example 720, (R)-1-(5-Cyclopropyl-2-{2-[3-(4-methyl-piperazin-1-yl)-phenylamino]-pyridin-4-yl}-pyrido[3,4-d]pyrimidin-4-yl)-piperidin-3-ol]
< 100 nM	CN1CCN(c2cccc(Nc3cc(-c4nc(N5CC[C@@H](CO)C5)c5c(C6CC6)cncc5n4)ccn3)c2)CC1 [Example 721, [(R)-1-(5-Cyclopropyl-2-{2-[3-(4-methyl-piperazin-1-yl)-phenylamino]-pyridin-4-yl}-pyrido[3,4-d]pyrimidin-4-yl)-pyrrolidin-3-yl]-methanol]
< 100 nM	CN1CCN(c2cccc(Nc3cc(-c4nc(N5CC[C@H](CO)C5)c5c(C6CC6)cncc5n4)ccn3)c2)CC1 [Example 722, [(S)-1-(5-Cyclopropyl-2-{2-[3-(4-methyl-piperazin-1-yl)-phenylamino]-pyridin-4-yl}-pyrido[3,4-d]pyrimidin-4-yl)-pyrrolidin-3-yl]-methanol]
1000 to 10000 nM	CCNC(=O)C1CCN(c2nc(-c3ccnc(Nc4c(F)cccc4F)c3)nc3cncc(C4CC4)c23)CC1 [Example 723, 1-{5-Cyclopropyl-2-[2-(2,6-difluoro-phenylamino)-pyridin-4-yl]-pyrido[3,4-d]pyrimidin-4-yl}-piperidine-4-carboxylic acid ethylamide]
< 100 nM	Fc1cc(C2CC2)nc(F)c1Nc1cc(-c2nc(N3CCNCC3)c3c(C4CC4)cncc3n2)ccn1 [Example 724, (6-Cyclopropyl-2,4-difluoro-pyridin-3-yl)-[4-(5-cyclopropyl-4-piperazin-1-yl-pyrido[3,4-d]pyrimidin-2-yl)-pyridin-2-yl]-amine; bis-trifluoroacetic salt]
< 100 nM	Fc1nc(C2CC2)ccc1Nc1cc(-c2nc(N3CCNCC3)c3c(C4CC4)cncc3n2)ccn1 [Example 725, (6-Cyclopropyl-2-fluoro-pyridin-3-yl)-[4-(5-cyclopropyl-4-piperazin-1-yl-pyrido[3,4-d]pyrimidin-2-yl)-pyridin-2-yl]-amine; bis-trifluoroacetic acid salt]
100 to 1000 nM	CNC(=O)C1CCN(c2nc(-c3ccnc(Nc4c(F)cccc4F)c3)nc3cncc(C4CC4)c23)C1 (stereo not shown) [Example 726, 1-{5-Cyclopropyl-2-[2-(2,6-difluoro-phenylamino)-pyridin-4-yl]-pyrido[3,4-d]pyrimidin-4-yl}-pyrrolidine-3-carboxylic acid methylamide]
< 100 nM	CN1CCN(c2cccc(Nc3cc(-c4nc(N5CC[C@H](O)C5)c5c(C6CC6)cncc5n4)ccn3)c2)CC1 [Example 727, (S)-1-(5-Cyclopropyl-2-{2-[3-(4-methyl-piperazin-1-yl)-phenylamino]-pyridin-4-yl}-pyrido[3,4-d]pyrimidin-4-yl)-pyrrolidin-3-ol]
100 to 1000 nM	CN1CCN(c2nc(-c3ccnc(Nc4cccc(N5CCC(O)CC5)c4)c3)nc3cncc(C4CC4)c23)CC1 [Example 728, 1-(3-{4-[5-Cyclopropyl-4-(4-methyl-piperazin-1-yl)-pyrido[3,4-d]pyrimidin-2-yl]-pyridin-2-ylamino}-phenyl)-piperidin-4-ol]
< 100 nM	OC1CCN(c2nc(-c3ccnc(Nc4cccc(N5CCNCC5)c4)c3)nc3cncc(C4CC4)c23)CC1 [Example 729, 1-{5-Cyclopropyl-2-[2-(3-piperazin-1-yl-phenylamino)-pyridin-4-yl]-pyrido[3,4-d]pyrimidin-4-yl}-piperidin-4-ol]
< 100 nM	CC(Nc1cc(-c2nc(N3CCNCC3)c3c(C4CC4)cncc3n2)ccn1)c1cnn(C)c1 (stereo not shown) [Example 730, [4-(5-Cyclopropyl-4-piperazin-1-yl-pyrido[3,4-d]pyrimidin-2-yl)-pyridin-2-yl]-[1-(1-methyl-1H-pyrazol-4-yl)-ethyl]-amine]
< 100 nM	Fc1nc(N2CCOCC2)ccc1Nc1cc(-c2nc(N3CCNCC3)c3c(C4CC4)cncc3n2)ccn1 [Example 731, [4-(5-Cyclopropyl-4-piperazin-1-yl-pyrido[3,4-d]pyrimidin-2-yl)-pyridin-2-yl]-(2-fluoro-6-morpholin-4-yl-pyridin-3-yl)-amine]
< 100 nM	OC1CCN(c2nc(-c3ccnc(Nc4cnn(CC5CCNCC5)c4)c3)nc3cncc(C4CC4)c23)CC1 [Example 732, 1-{5-Cyclopropyl-2-[2-(1-piperidin-4-ylmethyl-1H-pyrazol-4-ylamino)-pyridin-4-yl]-pyrido[3,4-d]pyrimidin-4-yl}-piperidin-4-ol]
1000 to 10000 nM	Clc1cc(-c2nc(N3CCN[C@@H](COCc4ccccc4)C3)c3c(C4CC4)cncc3n2)ccn1 [Example 733, 4-((R)-3-Benzyloxymethyl-piperazin-1-yl)-2-(2-chloro-pyridin-4-yl)-5-cyclopropyl-pyrido[3,4-d]pyrimidine]
< 100 nM	c1cc(Nc2cc(-c3nc(N4CCNCC4)c4c(C5CC5)cncc4n3)ccn2)cc(C2CC2)c1 [Example 734, (3-Cyclopropyl-phenyl)-[4-(5-cyclopropyl-4-piperazin-1-yl-pyrido[3,4-d]pyrimidin-2-yl)-pyridin-2-yl]-amine]
100 to 1000 nM	CN1CCN(C(=O)C2CCN(c3nc(-c4ccnc(Nc5c(F)cccc5F)c4)nc4cncc(C5CC5)c34)CC2)CC1 [Example 735, (1-{5-Cyclopropyl-2-[2-(2,6-difluoro-phenylamino)-pyridin-4-yl]-pyrido[3,4-d]pyrimidin-4-yl}-piperidin-4-yl)-(4-methyl-piperazin-1-yl)-methanone]
< 100 nM	CN(C)CCNC(=O)C1CCN(c2nc(-c3ccnc(Nc4c(F)cccc4F)c3)nc3cncc(C4CC4)c23)CC1 [Example 736, 1-{5-Cyclopropyl-2-[2-(2,6-difluoro-phenylamino)-pyridin-4-yl]-pyrido[3,4-d]pyrimidin-4-yl}-piperidine-4-carboxylic acid (2-dimethylamino-ethyl)-amide]
< 100 nM	CN1CCN(c2cccc(Nc3cc(-c4nc(N5CCC[C@H](O)C5)c5c(C6CC6)cncc5n4)ccn3)c2)CC1 [Example 737, (S)-1-(5-Cyclopropyl-2-{2-[3-(4-methyl-piperazin-1-yl)-phenylamino]-pyridin-4-yl}-pyrido[3,4-d]pyrimidin-4-yl)-piperidin-3-ol]
< 100 nM	CN1CCN(c2cccc(Nc3cc(-c4nc(N5CC[C@@H](O)C5)c5c(C6CC6)cncc5n4)ccn3)c2)CC1 [Example 738, (R)-1-(5-Cyclopropyl-2-{2-[3-(4-methyl-piperazin-1-yl)-phenylamino]-pyridin-4-yl}-pyrido[3,4-d]pyrimidin-4-yl)-pyrrolidin-3-ol]
